Measured values taken from patent EP0348509B1, “ANTI-RETROVIRAL DRUG” (TSUMURA & CO., priority 1987, dated 1989).
≈ marks a conversion by molar mass, not a printed value.

Experiments:
[1] = test system: Reverse transcriptase; test: Inhibition of reverse transcriptase activity ([3H]dTTP incorporation into acid-insoluble fraction)
Description: OF TOKYO PRESS TOKYO/KARGER, BASEL, pp. 603-605 (1975)], and then a reaction mixture liquid having the following composition was prepared.
By "1 unit" is meant the unit of the relative activity of the reverse transcriptase required to consume 1 nmol of dNTP (deoxynucleic acid phosphate at 37°C for 1 hour.
Then the dry extract powder obtained in the above-mentioned Specific Example, baicalein, baicalin, quercetin or hesperetin and refined water were added to 20 ml of the above-mentioned reaction mixture liquid so that the total volume was 50 µl, the incorporation of the radioactivity of [³H]dTTP into the acid-insoluble fraction was measured by a Beckmann scintillation counter, and the percent inhibition was calculated as the reverse transcriptase activity with respect to each concentration.

[2] = test system: male mice of the ddY line; test: Acute toxicity by oral administration, mice; type: in vivo; conditions: dose of 1 g/kg
[3] = test system: male rats of the Wistar line; test: Acute toxicity by oral administration, rats; type: in vivo; conditions: dose of 1 g/kg
[4] = intravenous administration; species not given; cited from earlier work
[5] = test system: RSV. SR-A strain; test: Focus formation by RSV in primary chicken embryo fibroblasts; type: cell-based; conditions: Rous sarcoma virus, Fibroblast, 192 h, number of foci, 8 days, read-out: IC₅₀
Description: A 24-well microplate was charged with 3.5 x 10⁵ cells per well of primary chicken embryo fibroblasts, and the fibroblasts were cultured at 37°C in an atmospher of 5% CO₂ for 6 hours. Then an RSV. SR-A strain having an infection multiplicity (M.O.I.) of about 2.0 x 10⁻⁴ and the test substance were added, and culturing was continued for further 2 hours. The cells were washed and the test substance and an agar culture medium were added, and then culturing was continued at 37°C in an atmospher of 5% CO₂ for further 8 days. The number of foci was counted, and the results are shown as IC₅₀ in Table 6.

[6] = test system: HIV; test: Inhibition of modification of HIV-infected MT-2 cells (living cell count after 1 week); type: cell-based; conditions: 5 µg/ml added; MT-2 cells infected with HIV; living cells counted after 1 week
Description: MT-2 cells were cultured at a concentration of 3 x 10⁴ cells/ml in a culture medium of RPMI 1640 (supplied by Gibco Co.) containing 10% FCS (supplied by Gibco Co.). After 2 days, the MT-2 cells were infected with HIV at a ratio of 200 cells per HIV, were distributed into groups to which 5 µg/ml of baicalein, quercetin or hesperetin was added and non-added groups (control groups), and the effect of the addition was determined.

[7] = test system: HTLV-1; test: HTLV-1 production by MT-2 cells (RNA hybridization with 32P-labelled HTLV-1 cDNA); type: cell-based; conditions: 4 days, compared with control
Description: The test substance and 1 x 10⁵ cells per well of MT-2 cells were charged in a 24-well microplate, and culturing was conducted for 4 days. Then the MT-2 cell suspension in each well was subjected to centrifugal separation, and the supernatant was extracted with phenol to obtain RNA of HTLV-1. This RNA and a known amount of HTLV-1 cDNA were plotted on a nitrocellulose paper, a comparative determination was carried out according to the hybridization using ³²P-labelled HTLV-1 cDNA, and the hydridization rate by the test substance was calculated by comparing the amount of the produced virus with that of the control.
The results are shown as the hybridization rate (%) in Table 7.

Row | Structure (SMILES) | Percent inhibition (%) ([1]; concentration 1 µg/ml) | Percent inhibition (%) ([1]; concentration 2 µg/ml) | Percent inhibition (%) ([1]; concentration 5 µg/ml) | Percent inhibition (%) ([1]; concentration 10 µg/ml) | Percent inhibition (%) ([1]; concentration 20 µg/ml) | acute toxicity (death) [2] | acute toxicity (death) [3] | modification of MT-2 cells with HIV was inhibited at a ratio [6] | further results
1 | O=C(O)[C@H]1O[C@@H](Oc2cc3oc(-c4ccccc4)cc(=O)c3c(O)c2O)[C@H](O)[C@@H](O)[C@@H]1O [baicalin] | 19% | 27% | 73% | 90% | 100% | no animal died | no animal died |  | 
2 | O=C1c2ccccc2C(=O)c2c1ccc(O)c2O [alizarin, 1,2-dihydroxyanthraquinone] |  |  |  |  |  |  |  |  | LD₅₀ [4]: 120 mg/kg
3 | O=C(O)CN(CC(=O)O)Cc1cc2c(c(O)c1O)C(=O)c1ccccc1C2=O [alizarin complexon] |  |  |  |  |  |  |  |  | IC50 [5]: 4.3 µg/mL
4 | COc1ccc([C@@H]2CC(=O)c3c(O)cc(O)cc3O2)cc1O [hesperetin] | 99% | 100% | 100% | 100% | 100% | no animal died | no animal died | at least 90% | Percent inhibition (%) ([1]; concentration 50 µg/ml): 100%
5 | O=c1c(O)c(-c2ccc(O)c(O)c2)oc2cc(O)cc(O)c12 [quercetin] | 77% | 96% | 99% | 100% | 100% | no animal died | no animal died | at least 90% | Percent inhibition (%) ([1]; concentration 50 µg/ml): 100%
6 | O=c1cc(-c2ccccc2)oc2cc(O)c(O)c(O)c12 [baicalein] | 92% | 98% | 100% | 100% | 100% | no animal died | no animal died | at least 90% | Percent inhibition (%) ([1]; concentration 0.1 µg/ml): 29%; Percent inhibition (%) ([1]; concentration 0.2 µg/ml): 35%; Percent inhibition (%) ([1]; concentration 0.5 µg/ml): 74%
7 | O=C1c2ccccc2C(=O)c2c1cc(S(=O)(=O)O)c(O)c2O [Alizarine Red S] |  |  |  |  |  |  |  |  | IC50 [5]: 2.1 µg/mL (≈ 6.56 µM); Hybridization Rate (%) ([7]; Amount Added 20 µg/ml): 61.7%; LD₅₀ [4]: 70 mg/kg
8 | O=C1c2ccccc2C(=O)c2c(O)c(O)cc(O)c21 [purpurin] |  |  |  |  |  |  |  |  | Hybridization Rate (%) ([7]; Amount Added 5 µg/ml): 61.3%
